Patent EP4714953A1, “MELANOCORTIN 2-TYPE RECEPTOR ANTAGONIST” (Scohia Pharma, Inc., priority 2023, dated 2024)

Molecular target: T1, human MC2R (Homo sapiens, UniProt Q01718)
T1 construct: host or cells: GeneBLAzer MC2R-CRE-bla CHO-K1 cells
Assay: Measurement of human MC2R inhibitory activity using intracellular cAMP concentration as an indicator
Type: cell-based
Details: test compound at 1 µM; GeneBLAzer MC2R-CRE-bla CHO-K1 cells; ACTH (Human 1-24) final concentration 3 pM; intracellular cAMP by HTRF; read-out: MC2R inhibition rate (% of inhibition)
Procedure: Experimental Example 1: Measurement of human MC2R inhibitory activity using intracellular cAMP concentration as an indicator
GeneBLAzer MC2R-CRE-bla CHO-K1 cells (Thermo Fisher Scientific) that had been cryopreserved in advance were thawed and suspended in a medium [Dulbecco's Modified Eagle Medium (Thermo Fisher Scientific) containing fetal bovine serum (10% (v/v), HyClone Laboratories), Non-Essential Amino Acids Solution (1/100 (w/w), Thermo Fisher Scientific), HEPES (25 mM, Thermo Fisher Scientific), Penicillin/Streptomycin (1/100 (w/w), Fujifilm Wako)]. After centrifuging the cell suspension, the supernatant was removed, the cells were suspended in D-PBS(-) (Fujifilm Wako), and the supernatant was removed again after centrifugation. The cells were resuspended in an assay buffer [Hank's Balanced Salt Solution (Thermo Fisher Scientific) containing HEPES pH 7.5 (10 mM, Thermo Fisher Scientific), fatty acid-free bovine serum albumin (0.01% (w/v), Sigma), IBMX (500 µM, Fujifilm Wako)] and added to a 384-well white plate (Greiner) at 1,500 cells/well. Then, the test compound prepared using the assay buffer was added, and after standing for 20 min, an assay buffer containing ACTH (Human 1-24) (Peptide Institute) was added (ACTH final concentration, 3 pM). After standing at room temperature for 30 min, the intracellular cAMP level was measured using cAMP Gs HiRange kit HTRF (PerkinElmer). The inhibition rate (%) of the compound against MC2R was calculated using the following formula. Inhibition rate (%) = […] [formula] • A: cAMP concentration calculated from wells containing 3 pM ACTH (1-24) • B: cAMP concentration calculated from wells without addition of 3 pM ACTH (1-24) • C: cAMP concentration calculated from wells containing 3 pM ACTH (1-24) and test compound at concentration determined in advance

T1 sequence (Q01718 whole entry): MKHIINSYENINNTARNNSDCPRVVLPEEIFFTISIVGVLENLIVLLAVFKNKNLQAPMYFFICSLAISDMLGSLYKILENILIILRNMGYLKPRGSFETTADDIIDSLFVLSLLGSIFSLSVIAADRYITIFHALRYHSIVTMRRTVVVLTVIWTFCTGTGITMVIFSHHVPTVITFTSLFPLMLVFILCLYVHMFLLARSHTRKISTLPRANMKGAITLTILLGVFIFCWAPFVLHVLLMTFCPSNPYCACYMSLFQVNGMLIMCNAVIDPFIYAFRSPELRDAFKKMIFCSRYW
T1 sequence (Q8TCY5 whole entry partner): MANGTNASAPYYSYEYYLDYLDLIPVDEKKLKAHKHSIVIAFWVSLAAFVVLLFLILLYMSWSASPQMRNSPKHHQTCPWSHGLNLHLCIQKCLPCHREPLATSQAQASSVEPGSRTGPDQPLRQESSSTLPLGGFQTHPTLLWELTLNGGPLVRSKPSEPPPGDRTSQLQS

CCOc1ncccc1-c1ccc(N2C[C@H]3CN(c4ccc(Cl)cc4C(F)(F)F)C(=O)N3C[C@H]2CC)c(C(=O)NC[C@H]2CCN2C(=O)OC(C)(C)C)n1 [Example 43, tert-butyl (2R)-2-[[[3-[(6R,8aS)-2-[4-chloro-2-(trifluoromethyl)phenyl]-6-ethyl-3-oxo-5,6,8,8a-tetrahydro-1H-imidazo[1,5-a]pyrazin-7-yl]-6-(2-ethoxypyridin-3-yl)pyridine-2-carbonyl]amino]methyl]azetidine-1-carboxylate]
inhibition at 1 µM: 100%

CCOc1ncccc1-c1ccc(N2C[C@H]3CN(c4ccc(Cl)cc4C(F)(F)F)C(=O)N3C[C@H]2CC)c(C(=O)NC[C@H]2CCN2)n1 [Example 44, 3-[(6R,8aS)-2-[4-chloro-2-(trifluoromethyl)phenyl]-6-ethyl-3-oxo-5,6,8,8a-tetrahydro-1H-imidazo[1,5-a]pyrazin-7-yl]-N-[[(2R)-azetidin-2-yl]methyl]-6-(2-ethoxypyridin-3-yl)pyridine-2-carboxamide]
inhibition at 1 µM: 100%

CCOc1ncccc1-c1ccc(N2C[C@H]3CN(c4ccc(Cl)cc4C(F)(F)F)C(=O)N3C[C@H]2CC)c(C(=O)NC[C@@H]2CCN2C(=O)OC(C)(C)C)n1 [Example 45, tert-butyl (2S)-2-[[[3-[(6R,8aS)-2-[4-chloro-2-(trifluoromethyl)phenyl]-6-ethyl-3-oxo-5,6,8,8a-tetrahydro-1H-imidazo[1,5-a]pyrazin-7-yl]-6-(2-ethoxypyridin-3-yl)pyridine-2-carbonyl]amino]methyl]azetidine-1-carboxylate]
inhibition at 1 µM: 100%

CCOc1ncccc1-c1ccc(N2C[C@H]3CN(c4ccc(Cl)cc4C(F)(F)F)C(=O)N3C[C@H]2CC)c(C(=O)NC[C@@H]2CCN2)n1 [Example 46, 3-[(6R,8aS)-2-[4-chloro-2-(trifluoromethyl)phenyl]-6-ethyl-3-oxo-5,6,8,8a-tetrahydro-1H-imidazo[1,5-a]pyrazin-7-yl]-N-[[(2S)-azetidin-2-yl]methyl]-6-(2-ethoxypyridin-3-yl)pyridine-2-carboxamide]
inhibition at 1 µM: 100%

CCOc1ncccc1-c1ccc(N2C[C@H]3CN(c4ccc(Cl)cc4C(F)(F)F)C(=O)N3C[C@H]2CC)c(C(=O)N[C@H]2CCNC2=O)n1 [Example 48, 3-[(6R,8aS)-2-[4-chloro-2-(trifluoromethyl)phenyl]-6-ethyl-3-oxo-5,6,8,8a-tetrahydro-1H-imidazo[1,5-a]pyrazin-7-yl]-6-(2-ethoxypyridin-3-yl)-N-[(3S)-2-oxopyrrolidin-3-yl]pyridine-2-carboxamide]
inhibition at 1 µM: 100%

CCOc1ncccc1-c1ccc(N2C[C@H]3CN(c4ccc(Cl)cc4C(F)(F)F)C(=O)N3C[C@H]2CC)c(C(=O)N[C@H]2CC(=O)N(C)C2)n1 [Example 50, 3-[(6R,8aS)-2-[4-chloro-2-(trifluoromethyl)phenyl]-6-ethyl-3-oxo-5,6,8,8a-tetrahydro-1H-imidazo[1,5-a]pyrazin-7-yl]-6-(2-ethoxypyridin-3-yl)-N-[(3S)-1-methyl-5-oxopyrrolidin-3-yl]pyridine-2-carboxamide]
inhibition at 1 µM: 100%

CCOc1ncccc1-c1ccc(N2C[C@H]3CN(c4ccc(F)cc4C(F)(F)F)C(=O)N3C[C@H]2CC)c(C(=O)N[C@H]2CNC(=O)C2)n1 [Example 51, 3-[(6R,8aS)-6-ethyl-2-[4-fluoro-2-(trifluoromethyl)phenyl]-3-oxo-5,6,8,8a-tetrahydro-1H-imidazo[1,5-a]pyrazin-7-yl]-6-(2-ethoxypyridin-3-yl)-N-[(3R)-5-oxopyrrolidin-3-yl]pyridine-2-carboxamide]
inhibition at 1 µM: 100%

CCOc1ncccc1-c1ccc(N2C[C@H]3CN(c4ccc(F)cc4C(F)(F)F)C(=O)N3C[C@H]2CC)c(C(=O)N[C@@H]2CC(=O)N(C)C2)n1 [Example 52, 3-[(6R,8aS)-6-ethyl-2-[4-fluoro-2-(trifluoromethyl)phenyl]-3-oxo-5,6,8,8a-tetrahydro-1H-imidazo[1,5-a]pyrazin-7-yl]-6-(2-ethoxypyridin-3-yl)-N-[(3R)-1-methyl-5-oxopyrrolidin-3-yl]pyridine-2-carboxamide]
inhibition at 1 µM: 100%

CCOc1ncccc1-c1ccc(N2C[C@H]3CN(c4ccc(Cl)cc4C#N)C(=O)N3C[C@H]2CC)c(C(=O)N[C@H]2CNC(=O)C2)n1 [Example 53, 3-[(6R,8aS)-2-(4-chloro-2-cyanophenyl)-6-ethyl-3-oxo-5,6,8,8a-tetrahydro-1H-imidazo[1,5-a]pyrazin-7-yl]-6-(2-ethoxypyridin-3-yl)-N-[(3R)-5-oxopyrrolidin-3-yl]pyridine-2-carboxamide]
inhibition at 1 µM: 100%

CCOc1ncccc1-c1ccc(N2C[C@H]3CN(c4ccc(Cl)cc4C#N)C(=O)N3C[C@H]2CC)c(C(=O)N[C@@H]2CC(=O)N(C)C2)n1 [Example 54, 3-[(6R,8aS)-2-(4-chloro-2-cyanophenyl)-6-ethyl-3-oxo-5,6,8,8a-tetrahydro-1H-imidazo[1,5-a]pyrazin-7-yl]-6-(2-ethoxypyridin-3-yl)-N-[(3R)-1-methyl-5-oxopyrrolidin-3-yl]pyridine-2-carboxamide]
inhibition at 1 µM: 100%

CCOc1ncccc1-c1ccc(N2C[C@H]3CN(c4ccc(F)cc4C#N)C(=O)N3C[C@H]2CC)c(C(=O)N[C@H]2CNC(=O)C2)n1 [Example 55, 3-[(6R,8aS)-2-(2-cyano-4-fluorophenyl)-6-ethyl-3-oxo-5,6,8,8a-tetrahydro-1H-imidazo[1,5-a]pyrazin-7-yl]-6-(2-ethoxypyridin-3-yl)-N-[(3R)-5-oxopyrrolidin-3-yl]pyridine-2-carboxamide]
inhibition at 1 µM: 100%

CCOc1ncccc1-c1ccc(N2C[C@H]3CN(c4ccc(C(F)(F)F)cc4C#N)C(=O)N3C[C@H]2CC)c(C(=O)N[C@H]2CNC(=O)C2)n1 [Example 56, 3-[(6R,8aS)-2-[2-cyano-4-(trifluoromethyl)phenyl]-6-ethyl-3-oxo-5,6,8,8a-tetrahydro-1H-imidazo[1,5-a]pyrazin-7-yl]-6-(2-ethoxypyridin-3-yl)-N-[(3R)-5-oxopyrrolidin-3-yl]pyridine-2-carboxamide]
inhibition at 1 µM: 100%

CCOc1ncccc1-c1ccc(N2C[C@H]3CN(c4ccc(C(F)(F)F)cc4C#N)C(=O)N3C[C@H]2CC)c(C(=O)N[C@@H]2CC(=O)N(C)C2)n1 [Example 57, 3-[(6R,8aS)-2-[2-cyano-4-(trifluoromethyl)phenyl]-6-ethyl-3-oxo-5,6,8,8a-tetrahydro-1H-imidazo[1,5-a]pyrazin-7-yl]-6-(2-ethoxypyridin-3-yl)-N-[(3R)-1-methyl-5-oxopyrrolidin-3-yl]pyridine-2-carboxamide]
inhibition at 1 µM: 100%

CCOc1ncccc1-c1ccc(N2C[C@H]3CN(c4ccc(F)cc4C#N)C(=O)N3C[C@H]2CC)c(C(=O)N[C@@H]2CC(=O)N(C)C2)n1 [Example 58, 3-[(6R,8aS)-2-(2-cyano-4-fluorophenyl)-6-ethyl-3-oxo-5,6,8,8a-tetrahydro-1H-imidazo[1,5-a]pyrazin-7-yl]-6-(2-ethoxypyridin-3-yl)-N-[(3R)-1-methyl-5-oxopyrrolidin-3-yl]pyridine-2-carboxamide]
inhibition at 1 µM: 100%

CCOc1ncccc1-c1ccc(N2C[C@H]3CN(C4(C(F)(F)F)CC4)C(=O)N3C[C@H]2CC)c(C(=O)N[C@@H]2CC(=O)N(C)C2)n1 [Example 59, 3-[(6R,8aS)-6-ethyl-3-oxo-2-[1-(trifluoromethyl)cyclopropyl]-5,6,8,8a-tetrahydro-1H-imidazo[1,5-a]pyrazin-7-yl]-6-(2-ethoxy-3-pyridinyl)-N-[(3R)-1-methyl-5-oxopyrrolidin-3-yl]pyridine-2-carboxamide]
inhibition at 1 µM: 87%

CCOc1ncccc1-c1ccc(N2C[C@H]3CN(c4ccc(Cl)cc4C(F)(F)F)C(=O)N3C[C@H]2C)c(C(=O)N[C@@H]2CC(=O)N(C)C2)n1 [Example 60, 3-[(6R,8aS)-2-[4-chloro-2-(trifluoromethyl)phenyl]-6-methyl-3-oxo-5,6,8,8a-tetrahydro-1H-imidazo[1,5-a]pyrazin-7-yl]-6-(2-ethoxy-3-pyridinyl)-N-[(3R)-1-methyl-5-oxopyrrolidin-3-yl]pyridine-2-carboxamide]
inhibition at 1 µM: 97%

COc1ncccc1-c1ccc(N2C[C@H]3CN(c4ccc(Cl)cc4C(F)(F)F)C(=O)N3C[C@H]2C)c(C(=O)N[C@@H]2CC(=O)N(C)C2)n1 [Example 61, 3-[(6R,8aS)-2-[4-chloro-2-(trifluoromethyl)phenyl]-6-methyl-3-oxo-5,6,8,8a-tetrahydro-1H-imidazo[1,5-a]pyrazin-7-yl]-6-(2-methoxy-3-pyridinyl)-N-[(3R)-1-methyl-5-oxopyrrolidin-3-yl]pyridine-2-carboxamide]
inhibition at 1 µM: 97%

CCOc1ccccc1-c1ccc(N2C[C@H]3CN(C4(C(F)(F)F)CC4)C(=O)N3C[C@H]2CC)c(C(=O)N[C@@H]2CC(=O)N(C)C2)n1 [Example 62, 3-[(6R,8aS)-6-ethyl-3-oxo-2-[1-(trifluoromethyl)cyclopropyl]-5,6,8,8a-tetrahydro-1H-imidazo[1,5-a]pyrazin-7-yl]-6-(2-ethoxyphenyl)-N-[(3R)-1-methyl-5-oxopyrrolidin-3-yl]pyridine-2-carboxamide]
inhibition at 1 µM: 98%
